From patent publication US10519169B2, “3-(1H-pyrrolo[2,3-C]pyridin-2-yl)-1 H-pyrazolo[4,3-B]pyridines and therapeutic uses thereof” (Samumed, LLC, priority 2015, dated 2019)

Experiments:
Assay type in all cases: cell-based
[1] = test system: Wnt activity (Sp5-Luc reporter, TCF/LEF binding sites) in SW480 colon carcinoma cells; assay: Wnt activity screening assay, Sp5-Luc reporter gene in SW480 cells; settings: Homo sapiens; for EC50: overnight incubation
From the text: The screening assay for Wnt activity is described as follows. Reporter cell lines can be generated by stably transducing cancer cell lines (e.g., colon cancer) or primary cells (e.g., IEC-6 intestinal cells) with a lentiviral construct that includes a Wnt-responsive promoter driving expression of the firefly luciferase gene.
SW480 colon carcinoma cells were transduced with a lentiviral vector expressing luciferase with a human Sp5 promoter consisting of a sequence of eight TCF/LEF binding sites. SW480 cells stably expressing the Sp5-Luc reporter gene and a hygromycin resistance gene were selected by treatment with 150 μg/mL of hygromycin for 7 days. These stably transduced SW480 cells were expanded in cell culture and used for all further screening activities. Each compound was dissolved in DMSO as a 10 mM stock and used to prepare compound source plates. Serial dilution (1:3, 10-point dose-response curves starting from 10 μM) and compound transfer was performed using the ECHO 550 (Labcyte, Sunnyvale, Calif.) into 384-well white solid bottom assay plates (Greiner Bio-One) with appropriate DMSO backfill for a final DMSO concentration of 0.1%. For Sp5-Luc reporter gene assays, the cells were plated at 4,000 cells/well in 384-well plates with medium containing 1% fetal bovine serum and incubated overnight at 37° C. and 5% CO2. Following incubation, 20 μl of BrightGlo luminescence reagent (Promega) was added to each well of the 384-well assay plates. The plates were placed on an orbital shaker for 2 min and then luminescence was quantified using the Envision (Perkin Elmer) plate reader. Readings were normalized to DMSO only treated cells, and normalized activities were utilized for EC50 calculations using the dose-response log (inhibitor) vs. response-variable slope (four parameters) nonlinear regression feature available in GraphPad Prism 5.0 (or Dotmatics). For EC50 of >10 μM, the percent inhibition at 10 μM is provided.

[2] = test system: SW480 colon cancer cells; assay: Cell viability assay (CellTiter-Blue), SW480 cells; settings: Homo sapiens, 96 h, four days, CellTiter-Blue
Method: Representative compounds were screened using the following assay procedure to assess the effect on cell viability as described below.
Each compound was dissolved in DMSO as a 10 mM stock and used to prepare compound source plates. Serial dilution (1:3, 8-point dose-response curves from […]) and compound transfer was performed using the ECHO 550 (Labcyte, Sunnyvale, Calif.) into 96-well clear bottom, black-walled plates (Corning-Costar).
Approximately 2×10^3 SW480 colon cancer cells were seeded into each well and allowed to incubate in the presence or absence of compound for four days at 37° C./5% CO2. Eight replicates of DMSO-treated cells served as controls and cells treated with compound were performed in duplicate.
After incubation, 20 μL of CellTiter-Blue (Promega) was added to each well allowed to incubate for approximately 3 hours. This reagent was a buffered solution which contains resazurin, metabolically active cells were able to reduce rezarurin (blue) into resorufin (pink) which was highly fluorescent. This measured fluorescence was used as a readout for cell viability.
After incubation, the plates were read at Ex 560 nm Em 590 nm (Cytation 3, BioTek). Dose-response curves were generated and EC50 concentration values were calculated using non-linear regression curve fit in the GraphPad Prism (San Diego, Calif.) or Dotmatics' Studies Software (Bishops Stortford, UK). For EC50 of >10 μM, the percent inhibition at 10 μM is provided.

[3] = test system: primary human fibroblasts derived from IPF patients (LL29 cells) treated with TGF-β1; assay: Inhibition of fibrotic process, αSMA staining in TGF-β1 treated LL29 fibroblasts; settings: Fibroblast; for EC50: 96 h, TGF-β1 20 ng/mL, 4 days, % cells positive for αSMA
From the text: Representative compounds were screened using primary human fibroblasts (derived from IPF patients) treated with TGF-β1 to determine their ability to inhibit the fibrotic process.
Primary human fibroblasts derived from IPF patients (LL29 cells) [^1Xiaoqiu Liu, et. al., “Fibrotic Lung Fibroblasts Show Blunted Inhibition by cAMP Due to Deficient cAMP Response Element-Binding Protein Phosphorylation”, Journal of Pharmacology and Experimental Therapeutics (2005), 315(2), 678-687; ^2Watts, K. L., et. al., “RhoA signaling modulates cyclin D1 expression in human lung fibroblasts; implications for idiopathic pulmonary fibrosis”, Respiratory Research (2006), 7(1), 88] were obtained from American Type Culture Collection (ATCC) and expanded in F12 medium supplemented with 15% Fetal Bovine Serum and Penicillin/Streptomycin.
Each compound was dissolved in DMSO as a 10 mM stock and used to prepare compound source plates. Serial dilution (1:2, 11-point dose-response curves from […] to […]) and compound transfer was performed using the ECHO 550 (Labcyte, Sunnyvale, Calif.) into 384-well clear bottom assay plates (Greiner Bio-One) with appropriate DMSO backfill for a final DMSO concentration of 0.1%. LL29 cells are plated at 1,500 cells/well in 80 μL/well F12 medium supplemented with 1% Fetal Bovine Serum. One hour after addition of the cells, TGF-β1 (Peprotech; 20 ng/mL) was added to the plates to induce fibrosis (ref. 1 and 2 above). Wells treated with TGF-β1 and containing DMSO were used as controls. Cells were incubated at 37° C. and 5% CO2 for 4 days. Following incubation for 4 days, SYTOX green nucleic acid stain (Life Technologies [Thermo Fisher Scientific]) was added to the wells at a final concentration of 1 μM and incubated at room temperature for 30 min. Cells were then fixed using 4% formaldehyde (Electron Microscopy Sciences), washed 3 times with PBS followed by blocking and permeabilization using 3% Bovine Serum Albumin (BSA; Sigma) and 0.3% Triton X-100 (Sigma) in PBS. Cells were then stained with antibody specific to α-smooth muscle actin (aSMA; Abcam) (ref. 1 and 2 above) in 3% Bovine Serum Albumin (BSA; Sigma) and 0.3% Triton X-100 (Sigma) in PBS, and incubated overnight at 4° C. Cells were then washed 3 times with PBS, followed by incubation with Alexa Flor-647 conjugated secondary antibody (Life Technologies [Thermo Fisher Scientific]) and DAPI at room temperature for 1 hour. Cells were then washed 3 times with PBS and plates were sealed for imaging. aSMA staining was imaged by excitation at 630 nm and emission at 665 nm and quantified using the Compartmental Analysis program on the CellInsight CX5 (Thermo Scientific). Dead or apoptotic cells were excluded from analysis based on positive SYTOX green staining. % of total cells positive for aSMA were counted in each well and normalized to the average of 11 wells treated with TGF-β1 on the same plate using Dotmatics' Studies Software. The normalized averages (fold change over untreated) of 3 replicate wells for each compound concentration were used to create dose-responses curves and EC50 values were calculated using non-linear regression curve fit in the Dotmatics' Studies Software. For EC50 of >10 μM, the percent inhibition at 10 μM is provided.

[4] = test system: IL-6; assay: IL-6 inhibition in LPS-stimulated THP-1 cells (HTRF); settings: Homo sapiens; for EC50: LPS 500 ng/mL, 22 hours, IL6 HTRF; for inhibition at 10 µM: given for EC50 >10 μM, LPS, IL6, at 10 M [sic], read-out: percent inhibition at 10 M
Method: Human monocyte cell line (THP-1 cells; Catalog # TIB-202, ATCC, Manassas, Va.) were cultured in Roswell Park Memorial Institute (RPMI) 1640 Medium (Catalog #21870-100, Buffalo, N.Y.) with 1% L-glutamine, 1% HEPES, 1% Sodium Pyruvate, 2% Sodium Bicarbonate supplemented with 100 units/mL penicillin, 50 μg/mL streptomycin, 2-mercaptoethanol (0.05 mM) [basal medium] and 10% fetal bovine serum (Catalog #16140089, Life Technologies, Carlsbad, Calif.) at 37° C. and 5% CO2.
THP-1 cells were cultured in basal media with 1% FBS for 24 hours before the start of the assay. Each compound was dissolved in DMSO as a 10 mM stock and used to prepare compound source plates. Serial dilution (1:3, 10-point dose-response curves starting from 10 μM) and compound transfer was performed using the ECHO 550 (Labcyte, Sunnyvale, Calif.) into 384-well white low volume assay plates (Greiner Bio-One) with appropriate DMSO backfill for a final DMSO concentration of 0.1%. THP-1 cells were plated at 5000 cells/well in the 384-well plates and incubated at 37° C. for 2 h. 500 ng/mL of LPS was added after 2 hours and cells were incubated for another 22 hours at 37° C. Plates were spun in a centrifuge for 1 minute at […] and a mixture of anti-IL6 XL665, and anti-IL6 Cryptate diluted in reconstitution buffer (Cisbio Inc.) was added to each well. Following incubation for 3 hrs at room temperature, Homogeneous Time-Resolved Fluorescence (HTRF) was measured using the Envision (Perkin Elmer) at 665 nm and […]. The ratio of fluorescence at 665 nm to 620 nm was used as a readout for IL6 quantification. All samples were processed in duplicate. Readings were normalized to DMSO treated cells and normalized activities were utilized for EC50 calculations using the dose-response log (inhibitor) vs. response-variable slope (four parameters) nonlinear regression feature available in GraphPad Prism 5.0 (or Dotmatics). For EC50 of >10 μM, the percent inhibition at […] is provided.

For CC(C)(C)C(=O)Nc1cncc(-c2ccc3[nH]nc(-c4cc5c(-c6cccc(F)c6)cncc5[nH]4)c3n2)c1 [Compound 8, N-(5-(3-(4-(3-Fluorophenyl)-1H-pyrrolo[2,3-c]pyridin-2-yl)-1H-pyrazolo [4,3-b]pyridin-5-yl)pyridin-3-yl)pivalamide], which EC50 [1] is on record?
Its EC50 is 1970 nM.

And the EC50 [2]?
The EC50 was 1210 nM.

What about the EC50 [3] of the same compound?
Its EC50 is 2310 nM.

What about the EC50 [4] of the same compound?
The EC50 was 228 nM.

How did the EC50 [1] turn out when O=C(Nc1cncc(-c2ccc3[nH]nc(-c4cc5c(-c6cccc(F)c6)cncc5[nH]4)c3n2)c1)C1CCCCC1 [Compound 23, N-(5-(3-(4-(3-Fluorophenyl)-1H-pyrrolo[2,3-c]pyridin-2-yl)-1H-pyrazolo [4,3-b]pyridin-5-yl)pyridin-3-yl)cyclohexanecarboxamide] was run?
The EC50 was 1460 nM.

What about the EC50 [2] of the same compound?
Its EC50 is 1070 nM.

What about the EC50 [3] of the same compound?
Its EC50 is 718 nM.

And the EC50 [4]?
Its EC50 is > 10000 nM.

And the inhibition at 10 µM [4]?
The inhibition at 10 µM was 1%.

How did the EC50 [1] turn out when Fc1ccc(-c2cncc3[nH]c(-c4n[nH]c5ccc(-c6ccccn6)nc45)cc23)cc1 [Compound 56, 3-(4-(4-Fluorophenyl)-1H-pyrrolo[2,3-c]pyridin-2-yl)-5-(pyridin-2-yl)-1H-pyrazolo[4,3-b]pyridine] was run?
Its EC50 is 2320 nM.

What about the EC50 [2] of the same compound?
Its EC50 is 1120 nM.

What about the EC50 [3] of the same compound?
Its EC50 is 1300 nM.

And the EC50 [4]?
Its EC50 is > 10000 nM.

What about the inhibition at 10 µM [4] of the same compound?
The inhibition at 10 µM was 32.6%.

Which results are given for CC(C)CC(=O)Nc1cncc(-c2ccc3[nH]nc(-c4cc5c(-c6ccccc6F)cncc5[nH]4)c3n2)c1 [Compound 58, N-(5-(3-(4-(2-Fluorophenyl)-1H-pyrrolo[2,3-c]pyridin-2-yl)-1H-pyrazolo [4,3-b]pyridin-5-yl)pyridin-3-yl)-3-methylbutanamide]?
EC50 [1]: 702 nM; EC50 [2]: 413 nM; EC50 [3]: 697 nM; EC50 [4]: 85 nM

What does the source list for O=C(Nc1cncc(-c2ccc3[nH]nc(-c4cc5c(-c6ccccc6F)cncc5[nH]4)c3n2)c1)C1CC1 [Compound 76, N-(5-(3-(4-(2-Fluorophenyl)-1H-pyrrolo[2,3-c]pyridin-2-yl)-1H-pyrazolo [4,3-b]pyridin-5-yl)pyridin-3-yl)cyclopropanecarboxamide]?
EC50 [1]: 1420 nM; EC50 [2]: 897 nM; EC50 [3]: 2040 nM; EC50 [4]: 157 nM

How did the EC50 [1] turn out when Fc1ccccc1-c1cncc2[nH]c(-c3n[nH]c4ccc(-c5cncc(CNCc6ccccc6)c5)nc34)cc12 [Compound 80, N-Benzyl-1-(5-(3-(4-(2-fluorophenyl)-1H-pyrrolo[2,3-c]pyridin-2-yl)-1H-pyrazolo[4,3-b]pyridin-5-yl)pyridin-3-yl)methanamine] was run?
The EC50 was 3980 nM.

What about the EC50 [2] of the same compound?
The EC50 was 6720 nM.

And the EC50 [3]?
The EC50 was 4600 nM.

What about the EC50 [4] of the same compound?
Its EC50 is 5790 nM.

How did the EC50 [1] turn out when CC(C)Nc1cncc(-c2ccc3[nH]nc(-c4cc5c(-c6cccnc6)cncc5[nH]4)c3n2)c1 [Compound 96, N-Isopropyl-5-(3-(4-(pyridin-3-yl)-1H-pyrrolo[2,3-c]pyridin-2-yl)-1H-pyrazolo[4,3-b]pyridin-5-yl)pyridin-3-amine] was run?
Its EC50 is 1730 nM.

And the EC50 [2]?
Its EC50 is 1380 nM.

What about the EC50 [3] of the same compound?
The EC50 was > 10000 nM.

And the inhibition at 10 µM ([3]; given for EC50 >10 μM, TGF-β1, αSMA, 10 μM, read-out: percent inhibition at 10 μM)?
The inhibition at 10 µM was 0%.

What about the EC50 [4] of the same compound?
The EC50 was 120 nM.

For CCNCc1cncc(-c2ccc3[nH]nc(-c4cc5ccncc5[nH]4)c3n2)c1 [Compound 258, N-((5-(3-(1H-Pyrrolo[2,3-c]pyridin-2-yl)-1H-pyrazolo[4,3-b]pyridin-5-yl)pyridin-3-yl)methyl)ethanamine], which EC50 [1] is on record?
Its EC50 is 8450 nM.

And the EC50 [2]?
Its EC50 is 3580 nM.

What about the EC50 [3] of the same compound?
The EC50 was 6630 nM.

What about the EC50 [4] of the same compound?
Its EC50 is 873 nM.

Which inhibition at 10 µM ([1]; given for EC50 >10 μM, 10 μM, read-out: percent inhibition at 10 μM) does the source give for c1cc(-c2cncc3[nH]c(-c4n[nH]c5ccc(-c6cncc(CNCC7CCCC7)c6)nc45)cc23)co1 [Compound 333, 1-Cyclopentyl-N-((5-(3-(4-(furan-3-yl)-1H-pyrrolo[2,3-c]pyridin-2-yl)-1H-pyrazolo[4,3-b]pyridin-5-yl)pyridin-3-yl)methyl)methanamine] here?
Its inhibition at 10 µM is 25.5%.

What about the EC50 [1] of the same compound?
Its EC50 is > 10000 nM.

What about the EC50 [2] of the same compound?
Its EC50 is 7840 nM.

What about the EC50 [3] of the same compound?
The EC50 was 1500 nM.

And the EC50 [4]?
Its EC50 is 456 nM.
